Source: publication PMC12190436, “5-Ene-2-arylaminothiazol-4(5H)-ones Induce Apoptosis in Breast Cancer Cells” (Cells, 2025)
Structures can show the parent of a compound that is named as a salt.

What was measured:
Format in all cases: cell-based, human
MCF-7 cells [1] = test: Annexin V-FITC/propidium iodide flow cytometry; conditions: 24 h; for viability at 5 µM: MCF7, 5 µM
Description: The MCF-7 cells were seeded on 6-well plates (1 × 10^5 cells per well) and incubated for 24 h. Afterwards, the cells were washed, and tested compounds (Les-6416, Les-6418, Les-6381, Les-6423, and Les-6424) were added in a concentration of 5 µM. The reference drug doxorubicin hydrochloride was applied in a concentration of 0.5 µM. The cells were incubated with the compounds for 24 h. Afterwards, the cells were washed several times with cold PBS and the cell suspensions were prepared in the binding buffer from the kit at a concentration of 1 × 10^6 cells/mL. A total of 100 µL of suspension was collected from each sample and transferred to the tubes. After that, 5 µL of Annexin V-FITC and 5 µL of propidium iodide were added. After 15 min of incubation at room temperature in a dark environment, the content of the tubes was filled with binding buffer up to 500 µL and assessed by BD FACSCanto II flow cytometer (Becton Dickinson Biosciences, San Jose, CA, USA). A total of 1 × 10^4 events were measured for each sample. The results were investigated by applying FACSDiva software Version 6.1.3. (BD Biosciences Systems, San Jose, CA, USA).
To assess the effects of novel compounds on apoptosis, we utilized flow cytometry analysis with Annexin V-FITC and Propidium Iodide double staining. In this way, we could distinguish between different cell populations based on their state: unstained or alive cells, cells stained with propidium iodide or necrotic cells, cells only stained with FITC-labeled annexin V or early apoptotic cells, and cells stained with both annexin V and propidium iodide or late apoptotic cells.

MCF-7 cells [2] = test: Clonogenic assay; conditions: 24 h treatment, 10-day endpoint
Description: The clonogenic assay was performed in accordance with the published methodology. MCF-7 cells were seeded in 24-well plates at 2.5 × 10^2 cells per well in 1 mL medium. Afterwards, they were left in an incubator at 37 °C for 24 h to attach to the wells. […] After the treatment, the medium was changed to a fresh one and left for 10 days, with an additional change in medium for the fresh one on the 7th day. Next, colonies formed by the seeded cells were washed, fixed for 10 min at 4 °C with 90% methanol, and stained with crystal violet solution (0.1% of crystal violet dissolved in 25% methanol). Afterwards, the plates were washed and dried at room temperature. The wells were photographed and analyzed using ImageJ software version 1.54k (Bethesda, MD, USA), with colonies defined as clusters of fifty or more cells.
Colonies formation was assessed after a 10-day incubation period following the treatment.

caspase 7 = test: FLICA caspase-3/7 activity, flow cytometry; conditions: 5 µM, 24 h, MCF-7
Description: (§1) To determine the effects of the novel compounds on the caspases-3/7, caspase-8, caspase-9, and caspase-10 activity, the FLICA Caspase-3/7 Assay Kit, FLICA Caspase-8 Assay Kit, FLICA Caspase-9 Assay Kit, and FLICA Caspase-10 Assay Kit were applied (ImmunoChemistry Technologies, Bloomington, MN, USA). MCF-7 cells were seeded on 6-well plates (1 × 10^5 cells per well) and incubated for 24 h. Afterwards, they were treated for 24 h with tested compounds (Les-6416, Les-6418, Les-6381, Les-6423, and Les-6424) in a concentration of 5 µM and the reference drug doxorubicin hydrochloride in a concentration of 0.5 µM. Next, cells were amassed and washed two times with cold PBS, followed by resuspension in an Apoptosis Wash Buffer to a final concentration of 5 × 10^5 cells/mL. Afterwards, 290 µL of the prepared cell suspensions were transferred into tubes, followed by the addition of 10 µL of FLICA solution, prepared immediately before use, to each sample and incubated for an hour at 37 °C. Next, cells were washed two times with 2 mL of Apoptosis Wash Buffer, provided in the kit, centrifuged, and resuspended in 300 µL of the buffer. Prepared samples were assessed by a BD FACSCanto II flow cytometer (Becton Dickinson Biosciences, San Jose, CA, USA). For each sample, 1 × 10^4 events were analyzed. The obtained results were investigated by applying FACSDiva software Version 6.1.3 (BD Biosciences Systems, San Jose, CA, USA).
(§2) To further investigate the effects of the newly synthesized compounds on the process of apoptosis we decided to measure their impact on various caspases as evidence of intrinsic (caspase 9) or extrinsic (caspase 8, 10) pathways of programmed cell death by applying flow cytometry analysis after 24 h treatment of MCF-7 breast cancer cells with novel 4-thiazolidinone derivatives and reference drug doxorubicin hydrochloride. […] With 41.28 ± 5.45%, 43.23 ± 2.85%, and 41.90 ± 6.89% of cells with activated caspase 8, 10, and 9, respectively, Les-6416 continued the trend of displaying the most significant effect on the three tested caspases. […]

MCF-7 cells [3] = test: JC-1 mitochondrial membrane potential, flow cytometry; conditions: 5 µM, 24 h, MCF-7, JC-1
Description: Lipophilic fluorochrome JC-1 (5,5′,6,6′-tetrachloro-1,1′,3,3′-tetraethylbenzimidazolcarbocyanine iodide) (BD Biosciences, San Diego, CA, USA) was applied to determine the novel structures’ effects on the MMP [35]. MCF-7 cells were seeded on 6-well plates at 5 × 10^6 cells per well, followed by incubation for 24 h. Afterwards, the cells were treated for 24 h with new 4-thiazolidinone derivatives (Les-6416, Les-6418, Les-6381, Les-6423, and Les-6424) in a concentration of 5 µM and the reference drug doxorubicin hydrochloride in a concentration of 0.5 µM. Then, cells were collected at a concentration of 1 × 10^6 cells/mL and washed two times with PBS. Next, 0.5 mL of the pre-prepared JC-1 working solution was added to each sample in accordance with the instructions of the manufacturer, followed by incubation at 37 °C for 15 min in a CO2 incubator. After that, an assay buffer was added to each sample to wash the cells several times. Afterwards, 0.5 mL from each sample was transferred to the tubes for immediate assessment using a BD FACSCanto II flow cytometer (Becton Dickinson Biosciences, San Jose, CA, USA). For each sample, 1 × 10^4 events were analyzed. The obtained results were investigated by applying FACSDiva software Version 6.1.3 (BD Biosciences Systems, San Jose, CA, USA).
A critical determinant of the induction of the intrinsic pathway of apoptosis is the decrease in mitochondrial membrane potential (ΔΨm). To investigate the effects of the novel 4-thiazolidinones on mitochondrial membrane potential, flow cytometry analysis of JC-1 dye was applied. JC-1 is a carbocyanine lipophilic cationic fluorochrome whose fluorescence depends on the MMP. Red fluorescence is emitted in viable cells with healthy mitochondria; however, apoptotic or necrotic cells with damaged mitochondria emit green fluorescence.

caspase 8 = test: FLICA caspase-8 activity, flow cytometry; conditions: 5 µM, 24 h, MCF-7
Description: as §1, §2

[4] = Homo sapiens, read-out: Viable cells, cell population

SMILES	Necrotic cells, cell population (MCF-7 cells [1]; 0.5 µM)	viability at 0.5 µM (MCF-7 cells [1]; Homo sapiens, MCF7, 0.5 µM, read-out: Viable cells, cell population)	survival fraction (MCF-7 cells [2]; 1, 0.5, and 0.1 µM)	cells with active caspase 7 (caspase 7)	Early apoptotic cells, cell population (MCF-7 cells [1]; 5 µM)	Late apoptotic cells, cell population (MCF-7 cells [1]; 5 µM)	Necrotic cells, cell population (MCF-7 cells [1]; 5 µM)	viability at 5 µM (MCF-7 cells [1]; [4])	Reduced ΔΨm, cell population (MCF-7 cells [3])	survival fraction (MCF-7 cells [2]; 2.5 µM)	survival fraction (MCF-7 cells [2]; 5 µM)	proapoptotic effect in comparison to the control (MCF-7 cells [1]; 5 µM)	cells with active caspase 8 (caspase 8)
COc1cccc2c1C(=O)c1c(O)c3c(c(O)c1C2=O)C[C@@](O)(C(=O)CO)C[C@@H]3O[C@H]1C[C@H](N)[C@H](O)[C@H](C)O1 [DOX, Doxorubicin hydrochloride, reference compound]	27.23 ± 3.76%	59.6%	0%										
COc1cc(NC2=NC(=O)C(=Cc3c[nH]c4ccccc34)S2)cc(OC)c1OC [Les-6418, 5-((1H-Indol-3-yl)methylene)-2-((3,4,5-trimethoxyphenyl)amino)thiazol-4(5H)-one]				19.85 ± 0.07%	7.55 ± 1.17%	44.68 ± 8.18%	0.13 ± 0.05%	47.7%	22.35 ± 3.06%	38.83 ± 1.66%	12.27 ± 9.27%		
COc1cc(NC2=NC(=O)C(=Cc3cccs3)S2)cc(OC)c1OC [Les-6423, 5-(Thiophen-2-ylmethylene)-2-((3,4,5-trimethoxyphenyl)amino)thiazol-4(5H)-one]								90%				did not have any statistically significant results	18.13 ± 1.96%
COc1cc(NC2=NC(=O)C(=Cc3ccc4cc[nH]c4c3)S2)cc(OC)c1OC [Les-6416, 5-((1H-Indol-6-yl)methylene)-2-((3,4,5-trimethoxyphenyl)amino)thiazol-4(5H)-one]				47.90 ± 0.57%	8.23 ± 2.56%	45.63 ± 10.29%	0.07 ± 0.06%	39.8%	33.80 ± 0.85%	5.89 ± 0.71%	1.35 ± 1.42%		41.28 ± 5.45%
COc1ccc(C=C2SC(Nc3cc(OC)c(OC)c(OC)c3)=NC2=O)cc1 [Les-6381, 5-(4-Methoxybenzylidene)-2-((3,4,5-trimethoxyphenyl)amino)thiazol-4(5H)-one]				15.05 ± 1.73%				49.6%	27.95 ± 1.43%				19.8 ± 3.69%
